Experimental findings from ChEMBL document CHEMBL1133597, “Fluorosulfonyl-substituted xanthines as selective irreversible antagonists for the A(1)-adenosine receptor” (J Med Chem, 2000) are described below.

For assay [1], the target named is T1, Adenosine receptor A2a (Rattus norvegicus, UniProt P30543).
Description: Inhibition of [3H]ZM-241385 binding to adenosine A2A receptor(AR).
The target in assay [2] is T2, Adenosine receptor A1 (Homo sapiens) (UniProt P30542).
T2 sequence (whole entry): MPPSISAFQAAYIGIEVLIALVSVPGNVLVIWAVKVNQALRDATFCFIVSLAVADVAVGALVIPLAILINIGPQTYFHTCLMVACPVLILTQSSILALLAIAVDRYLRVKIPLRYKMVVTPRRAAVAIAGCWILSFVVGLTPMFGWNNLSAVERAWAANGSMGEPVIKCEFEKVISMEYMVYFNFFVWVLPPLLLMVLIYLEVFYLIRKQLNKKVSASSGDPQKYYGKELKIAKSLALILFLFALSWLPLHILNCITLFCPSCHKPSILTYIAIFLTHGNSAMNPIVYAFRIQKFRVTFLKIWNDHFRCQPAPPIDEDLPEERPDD
The assay can be described thus: Percent loss of [3H]DPCPX binding to adenosine A1 receptor at 5 nM. The settings on record: Cricetulus griseus.

The target in assay [3] is T2, Adenosine receptor A1 (Homo sapiens). The assay can be described thus: Percent loss of [3H]DPCPX binding to adenosine A1 receptor at 0.1 nM. To be noted: Cricetulus griseus.
The target in assay [4] is T1, Adenosine receptor A2a. This is another data set of the same source.
Description: Dissociation constant of [3H]ZM-241385 binding to adenosine A2A receptor(AR)
Assay [5] concerns the target T2, Adenosine receptor A1 (Homo sapiens). The assay can be described thus: Percent loss of [3H]-DPCPX binding to adenosine A1 receptor at 100 nM. To be noted: Cricetulus griseus.
For assay [6] the target is unchanged. The assay can be described thus: Percent loss of [3H]DPCPX binding to adenosine A1 receptor at 0.05 nM. To be noted: Cricetulus griseus.
The next assay concerns the target T3, Adenosine receptor A1 (Homo sapiens, UniProt P30542).
T3 sequence (P30542 whole entry): T2 sequence (whole entry)
The assay can be described thus: Inhibition of [3H]-DPCPX binding to adenosine A1 receptor (AR). On the set-up: species or system Cricetulus griseus.

Assay [7] addresses T2, Adenosine receptor A1 (Homo sapiens). The assay can be described thus: Percent loss of [3H]-DPCPX binding to adenosine A1 receptor at 200 nM. To be noted: Cricetulus griseus.

T1 sequence (P30543 whole entry): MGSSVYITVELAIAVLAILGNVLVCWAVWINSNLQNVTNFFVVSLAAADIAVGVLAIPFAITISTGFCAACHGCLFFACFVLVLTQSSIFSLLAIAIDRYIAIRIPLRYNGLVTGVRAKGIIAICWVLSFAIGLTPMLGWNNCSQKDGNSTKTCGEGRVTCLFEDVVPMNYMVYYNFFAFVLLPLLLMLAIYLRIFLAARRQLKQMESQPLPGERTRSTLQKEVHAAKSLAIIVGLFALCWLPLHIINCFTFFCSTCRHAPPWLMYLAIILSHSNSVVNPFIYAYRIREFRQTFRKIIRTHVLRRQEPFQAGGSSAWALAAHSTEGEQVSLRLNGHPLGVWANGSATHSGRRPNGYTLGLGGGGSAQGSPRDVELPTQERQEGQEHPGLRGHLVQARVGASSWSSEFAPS

Regarding `CCCn1c(=O)c2nc(C3CCCC3)[nH]c2n(CCCNC(=O)c2ccc(S(=O)(=O)F)cc2)c1=O`, the IC50 against Adenosine receptor A2a [1] turned out to be 2.8 nM. Also, the Loss in assay [2] was found to be 74%; in assay [3] it was 64%; in assay [5] it was 83%; in assay [6] it was 33%. At Adenosine receptor A2a [4], this compound returned a Kd of 0.34 nM.
Consider `CCCn1c(=O)c2nc(C3CCCC3)[nH]c2n(CCCOC(=O)c2ccc(S(=O)(=O)F)cc2)c1=O`, for which the Loss in assay [2] came out at 67%.
`CCCn1c(=O)c2[nH]c(C3CCCCC3)nc2n(CCCc2ccc(S(=O)(=O)F)cc2)c1=O`: the IC50 at Adenosine receptor A1 was 112 nM; against Adenosine receptor A2a [1], greater than 10 nM.
Consider `CCCn1c(=O)c2nc(C3CCCCC3)[nH]c2n(CCCNC(=O)c2ccc(S(=O)(=O)F)cc2)c1=O`, for which the IC50 at Adenosine receptor A1 was determined as 24.9 nM. Besides, the Loss in assay [2] was 64%; in assay [3], 43%; in assay [5], 82%; in assay [6], 16%.
Compound `CCCn1c(=O)c2nc(C3CCCCC3)[nH]c2n(CCCc2ccc(S(=O)(=O)F)cc2)c1=O` gave a Loss in assay [7] of 11%.
At Adenosine receptor A2a [1], `CCCn1c(=O)c2[nH]c(C3CCCC3)nc2n(CCCOC(=O)c2ccc(S(=O)(=O)F)cc2)c1=O` had an IC50 of 1.2 nM. This compound showed a dissociation constant Kd at Adenosine receptor A2a [4] of 0.23 nM.
As for `CCCn1c(=O)c2[nH]c(C3CCCCC3)nc2n(Cc2ccc(S(=O)(=O)F)cc2)c1=O`, the half-inhibitory concentration (IC50) was 165 nM at Adenosine receptor A1 and greater than 10 nM on Adenosine receptor A2a [1].
`CCCn1c(=O)c2nc(C3CCCCC3)[nH]c2n(CCCCCc2ccc(S(=O)(=O)F)cc2)c1=O`: the IC50 on Adenosine receptor A1 is 101 nM; on Adenosine receptor A2a [1] it was greater than 10 nM. In assay [7], the Loss came to 43%.
`CCCn1c(=O)c2nc(C3CCCCC3)[nH]c2n(Cc2ccc(S(=O)(=O)F)cc2)c1=O`: the Loss in assay [7] is 0%.

The IC50 is the concentration that inhibits the measured activity by half. Lower therefore signals higher potency. One may read the Kd as the equilibrium constant for the complex coming apart.
